Test systems include A549 NSCLC; OVCAR-3 ovarian; UACC-257 melanoma; PC-3 prostate; IGROV1 ovarian; U251 CNS; NCI/ADR-RES ovarian; SNB-19 CNS.
What all share (assay): NCI anticancer screen, dose series, 48 h

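Interpolation was linear, between the two tested concentrations surrounding the appropriate level; five concentrations were tested over 48 hours in 96-well plates. GI50: concentration for 50% inhibition of growth. The concentration for full growth arrest is given as TGI.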 Where only a bound is given, the exact number is not on record here.

In PubChem BioAssay (NCI) one finds TGI and GI50 data, which are given here for ten molecules.

Turning to `CCOC(=O)C1c2[nH]c3ccccc3c2CCN1C(=O)c1ccco1` (centres undefined), the TGI in the experiment on A549 NSCLC, in the experiment with OVCAR-3 ovarian, in the experiment on UACC-257 melanoma, in the experiment on PC-3 prostate, in the experiment on IGROV1 ovarian and with U251 CNS was above 10 µM throughout. Besides, the TGI in the experiment on NCI/ADR-RES ovarian and with SNB-19 CNS was above 10 µM throughout.

Regarding `COc1ccc(Nc2c3c4c(cccc4[nH]c2=O)C(=O)c2ccccc2-3)cc1`, the GI50 with A549 NSCLC was below 0.0221 µM; in the experiment with OVCAR-3 ovarian, below 0.0158 µM; in the experiment with UACC-257 melanoma, 1.21 µM; in the experiment with PC-3 prostate, 0.0473 µM; in the experiment on IGROV1 ovarian, 0.0365 µM; with U251 CNS, 0.0434 µM. In addition, the GI50 in the experiment with NCI/ADR-RES ovarian is 0.0227 µM; in the experiment with SNB-19 CNS, 0.684 µM. The TGI is above 32.1 µM in the experiment on A549 NSCLC; below 0.0257 µM in the experiment with OVCAR-3 ovarian; above 92.4 µM in the experiment with UACC-257 melanoma; above 100 µM in the experiment with PC-3 prostate; above 100 µM in the experiment with IGROV1 ovarian; above 68.9 µM with U251 CNS. Also, the TGI with NCI/ADR-RES ovarian is 0.0526 µM; with SNB-19 CNS, above 100 µM.

In the case of `COc1ccc(-c2cc(-c3ccc(O)cc3)nc3nc(=S)[nH]c(N)c23)cc1`, the GI50 in the experiment on A549 NSCLC was 17.4 µM; with OVCAR-3 ovarian, 16.4 µM; in the experiment on UACC-257 melanoma, 17.2 µM; in the experiment on PC-3 prostate, 15.8 µM; in the experiment on IGROV1 ovarian, 18.6 µM; in the experiment with U251 CNS, 15.3 µM. Besides, the GI50 in the experiment with NCI/ADR-RES ovarian is 26.1 µM; in the experiment on SNB-19 CNS, 26.7 µM. In addition, the TGI with A549 NSCLC came out at 54.6 µM; with OVCAR-3 ovarian, 45 µM; in the experiment on UACC-257 melanoma, 36.3 µM; in the experiment on PC-3 prostate it was 43.7 µM; in the experiment on IGROV1 ovarian, 73.8 µM; in the experiment on U251 CNS, 61.1 µM. The TGI was 66.3 µM in the experiment with NCI/ADR-RES ovarian and above 100 µM with SNB-19 CNS.

Consider `C[As](C)Sc1ccnc(S[As](C)C)n1`, for which the GI50 in the experiment on A549 NSCLC was 8.51 µM; with OVCAR-3 ovarian, 3.91 µM; in the experiment with UACC-257 melanoma, 5 µM; in the experiment with PC-3 prostate, 3.14 µM; in the experiment on IGROV1 ovarian, 4.73 µM; in the experiment on U251 CNS, 7.03 µM. For the same molecule, the GI50 with NCI/ADR-RES ovarian is 7.72 µM; with SNB-19 CNS, 14.7 µM. The TGI in the experiment on A549 NSCLC is above 41.7 µM; with OVCAR-3 ovarian, 22 µM; with UACC-257 melanoma, 27.1 µM; in the experiment with PC-3 prostate it was 30.8 µM; in the experiment on IGROV1 ovarian, above 40.8 µM; in the experiment with U251 CNS, above 100 µM. Further, the TGI with NCI/ADR-RES ovarian is above 25.9 µM; with SNB-19 CNS it was above 56.2 µM.

Regarding `CC(C)c1ccc2c(N=Nc3ccc(S(N)(=O)=O)cc3)c(O)[nH]c2c1`, the GI50 in the experiment with A549 NSCLC was above 14.8 µM; with OVCAR-3 ovarian, 6.21 µM; in the experiment with UACC-257 melanoma, above 21.5 µM; in the experiment on PC-3 prostate, above 17.1 µM; with IGROV1 ovarian it was above 15.5 µM; in the experiment with U251 CNS, 5.09 µM. Besides, the figures for the GI50 with NCI/ADR-RES ovarian and in the experiment on SNB-19 CNS were above 13.5 µM and above 14.5 µM, respectively. The TGI in the experiment with A549 NSCLC is above 25 µM; in the experiment on OVCAR-3 ovarian, 18.6 µM; with UACC-257 melanoma, above 25 µM; in the experiment with PC-3 prostate it was above 25 µM; in the experiment on IGROV1 ovarian, above 25 µM; in the experiment with U251 CNS it was above 17.4 µM. The TGI with NCI/ADR-RES ovarian and in the experiment on SNB-19 CNS was above 25 µM each time.

For the molecule `Nc1ccccc1/C=N\Nc1ccccc1`, the GI50 in the experiment on A549 NSCLC is 4.7 µM; with OVCAR-3 ovarian, 36.2 µM; with UACC-257 melanoma, 51.5 µM; with PC-3 prostate, 3.08 µM; in the experiment on IGROV1 ovarian, above 100 µM; in the experiment on U251 CNS it was above 100 µM. The GI50 was 5.8 µM with NCI/ADR-RES ovarian and above 100 µM in the experiment on SNB-19 CNS. The TGI with A549 NSCLC, in the experiment on OVCAR-3 ovarian, with UACC-257 melanoma, in the experiment with PC-3 prostate, in the experiment on IGROV1 ovarian and in the experiment on U251 CNS was above 100 µM throughout. In addition, the TGI in the experiment on NCI/ADR-RES ovarian and with SNB-19 CNS was above 100 µM each time.

Regarding `C(=N/Nc1ncnc2nc[nH]c12)/c1ccccn1`, the GI50 was 1.27 µM in the experiment on A549 NSCLC; 0.421 µM in the experiment with OVCAR-3 ovarian; 1.87 µM with UACC-257 melanoma; 0.786 µM with PC-3 prostate; 2.11 µM in the experiment on IGROV1 ovarian; 0.569 µM in the experiment with U251 CNS. Further, the GI50 was 0.382 µM in the experiment on NCI/ADR-RES ovarian and 0.98 µM in the experiment on SNB-19 CNS. Further, the TGI with A549 NSCLC is above 100 µM; with OVCAR-3 ovarian, above 47 µM; with UACC-257 melanoma, 7.96 µM; in the experiment with PC-3 prostate, above 100 µM; in the experiment on IGROV1 ovarian, 20.9 µM; in the experiment with U251 CNS, above 100 µM. Besides, the results for the TGI with NCI/ADR-RES ovarian and with SNB-19 CNS were above 22.3 µM and above 100 µM, respectively.

Regarding `C#CC[C@@H]1C[C@]2(C)[C@H]3CC[C@@H]4[C@H]5[C@H](C(=C)C)CC[C@]5(C(=O)O)CC[C@@]4(C)[C@]3(C)CC[C@H]2C(C)(C)[C@H]1O`, the GI50 in the experiment with A549 NSCLC is 1.31 µM; in the experiment with OVCAR-3 ovarian, 1.7 µM; in the experiment with UACC-257 melanoma, 3.73 µM; in the experiment on PC-3 prostate, 1.5 µM; with IGROV1 ovarian, 4.21 µM; with U251 CNS it was 1.57 µM. For the same molecule, the GI50 is 2.03 µM in the experiment with NCI/ADR-RES ovarian and 3.04 µM in the experiment on SNB-19 CNS. The TGI turned out to be 2.8 µM in the experiment with A549 NSCLC; 3.15 µM in the experiment with OVCAR-3 ovarian; 13.4 µM in the experiment on UACC-257 melanoma; 3.52 µM in the experiment with PC-3 prostate; 15.6 µM in the experiment on IGROV1 ovarian; 3.03 µM with U251 CNS. The TGI came out at 5.24 µM in the experiment on NCI/ADR-RES ovarian and 13.4 µM with SNB-19 CNS.

Take `CC(=O)Oc1ccc2ccc(=O)oc2c1OC(C)=O`: the TGI in the experiment on A549 NSCLC, in the experiment with OVCAR-3 ovarian, in the experiment with UACC-257 melanoma, in the experiment on PC-3 prostate, in the experiment with IGROV1 ovarian and in the experiment with U251 CNS was above 100 µM each time. Further, the TGI in the experiment on NCI/ADR-RES ovarian and with SNB-19 CNS was above 100 µM each time.

On to `CCOC(=O)c1ccc2c(c1)[n+](=O)c(C(=O)c1ccc3ccccc3c1)c(C(F)(F)F)n2[O-]`, for which the GI50 was 1.89 µM with A549 NSCLC; 0.749 µM in the experiment with OVCAR-3 ovarian; 1.79 µM with UACC-257 melanoma; 0.729 µM with PC-3 prostate; 0.361 µM in the experiment on IGROV1 ovarian; 1.5 µM in the experiment on U251 CNS. The GI50 with NCI/ADR-RES ovarian was 1.61 µM; in the experiment on SNB-19 CNS, 1.7 µM. Moreover, the TGI was 3.62 µM with A549 NSCLC; 2.03 µM with OVCAR-3 ovarian; 3.24 µM in the experiment on UACC-257 melanoma; 2 µM with PC-3 prostate; 1.21 µM in the experiment with IGROV1 ovarian; 2.83 µM with U251 CNS. In addition, the results for the TGI in the experiment with NCI/ADR-RES ovarian and in the experiment with SNB-19 CNS were 3.31 µM and 3.07 µM, respectively.
